PMC10799042 (Scientific Reports, 2024)

How the values were obtained:
[1] = tested on: Reduced glutathione (GSH); test: Reduced glutathione (GSH) assay in brain homogenate; type: in vivo; settings: brain THS of mice, scopolamine 1.5 mg/kg i.p.; donepezil and compounds 2 mg/kg p.o.; mean ± SD
Experimental: (§1) The animals were properly acclimated before being randomly placed into 12 groups (I-XII), with six animals in each group. […] Following the delivery of the dose to the mouse, the rodent's behaviour was assessed using the traditional Morris water maze (MWM) technique.
(§2) After five days of behavioral assessment, the mice's brains were removed and homogenized (blended) in chilled phosphate buffer (pH 7.4) at a concentration of 10% w/v (weight per volume). The homogenates were then centrifuged (spun at high speed) for 20 min at 4 °C to separate the supernatant (liquid) from the pellet (solid material). The supernatant was then collected to measure biological substances.
The method described by Jollow et al. was used to measure glutathione (GSH) levels. First, 1.0 mL of 4% sulfosalicylic acid was added to 1.0 mL of tissue homogenate to precipitate the GSH. The mixture was then incubated at 4 °C for 1 h and centrifuged at 1200 rpm for 10 min at 4 °C. The supernatant was collected and diluted to a final volume of 3.0 mL with phosphate buffer and Ellman's reagent. […]

[2] = tested on: scopolamine-induced memory impairment and learning disability in mice; test: Morris water maze, scopolamine-induced memory impairment; type: in vivo, Swiss albino male mice; settings: for escape latency versus scopolamine-treated mice (in words) / improvement of cognitive defects (in words): 2 mg/kg; for escape latency versus scopolamine-treated mice (in words): day 1 to 5; for Escape latency, 2nd Day / Escape latency, 3rd Day / Escape latency, 4th Day / Escape latency, 5th Day / Escape latency, 1st Day: mice, scopolamine 1.5 mg/kg i.p., donepezil and compounds 2 mg/kg p.o. with scopolamine, mean ± SD; for Escape latency, 2nd Day: day 2; for Escape latency, 3rd Day: day 3; for Escape latency, 4th Day: day 4; for Escape latency, 5th Day: day 5; for improvement of cognitive defects (in words): compared with donepezil 2 mg/kg; for Escape latency, 1st Day: day 1
Experimental: Swiss albino male mice weighing 25–30 g were purchased from LLRUVAS in Hisar, Haryana, India. […] The housing, care, and handling of the animals were done per CPCSEA requirements. The animals were exposed to the laboratory setting for seven days before the experiment.
as §1
Five days of continuous animal evaluations were conducted using the MWM model. […] The tank was placed in a dim laboratory, and using wires anchored at the pool's edge at an angle to one another, it was divided into four equal pieces (P1–P4). A stage in the targeted area (P4) of the pool with an upper face (6 × 6 cm^2) immersed in the water (1.0 cm below the surface). The location of the stage stayed the same throughout the evaluation. The animals were subjected to water pools throughout the evaluation by turning their heads towards the wall from any of the four segments, namely P1-P4, and being given 90 s to recognise the stage placed in a pool. If the animal couldn't get to the stage in 90 s, they were gently guided onto the stage under supervision. On the sixth day, one of the parameters used to determine if cognitive impairments have recovered was the time it took the mice to travel from the initial portion to locate the hidden stage in the intended part (escape latency). […]

Catalase = Catalase assay in brain homogenate; type: in vivo; settings: brain THS of mice, scopolamine 1.5 mg/kg i.p.; donepezil and compounds 2 mg/kg p.o.; mean ± SD
Experimental: as §1, §2
Employing the methodology of Luck et al., catalase activity was quantified. The sample contained H2O2 (1.0 mL, 0.019 M), phosphate buffer (1.95 mL, 0.05 M, pH 7.0), and THS (0.05 mL). The optical density was computed at a wavelength of 240 nm. The findings were shown as μM H2O2 decomposition/min/mg protein[13].

[3] = tested on: Superoxide dismutase (SOD); test: Superoxide dismutase (SOD) assay in brain homogenate; type: in vivo; settings: brain THS of mice, scopolamine 1.5 mg/kg i.p.; donepezil and compounds 2 mg/kg p.o.; mean ± SD
Experimental: as §1, §2
The samples contained EDTA, sodium carbonate, and NBT, and the assay was performed using Kono's method. Each sample tube contained 2.0 mL of this mixture, as well as THS and hydroxylamine. The absorbance of the mixture was measured at 560 nm every 30 or 60 s for 2 min to track changes in absorbance.

nitrite = test: Nitrite assay (Greiss reagent) in brain homogenate; type: in vivo; settings: brain THS of mice, scopolamine 1.5 mg/kg i.p.; donepezil and compounds 2 mg/kg p.o.; mean ± SD
Experimental: as §1, §2
The amount of nitric oxide in THS was calculated using Greiss' reagent, a mixture of chemicals that reacts with nitric oxide to produce a colored product. The absorbance of the colored product was computed at 540 nm and the concentration of nitrite was determined using a standard curve of known nitrite concentrations.

[4] = target: T1, Acetylcholinesterase (AChE) (Mus musculus, UniProt P21836); settings: brain THS of mice, scopolamine 1.5 mg/kg i.p.; donepezil and compounds 2 mg/kg p.o.; mean ± SD
T1 sequence (P21836 32-614): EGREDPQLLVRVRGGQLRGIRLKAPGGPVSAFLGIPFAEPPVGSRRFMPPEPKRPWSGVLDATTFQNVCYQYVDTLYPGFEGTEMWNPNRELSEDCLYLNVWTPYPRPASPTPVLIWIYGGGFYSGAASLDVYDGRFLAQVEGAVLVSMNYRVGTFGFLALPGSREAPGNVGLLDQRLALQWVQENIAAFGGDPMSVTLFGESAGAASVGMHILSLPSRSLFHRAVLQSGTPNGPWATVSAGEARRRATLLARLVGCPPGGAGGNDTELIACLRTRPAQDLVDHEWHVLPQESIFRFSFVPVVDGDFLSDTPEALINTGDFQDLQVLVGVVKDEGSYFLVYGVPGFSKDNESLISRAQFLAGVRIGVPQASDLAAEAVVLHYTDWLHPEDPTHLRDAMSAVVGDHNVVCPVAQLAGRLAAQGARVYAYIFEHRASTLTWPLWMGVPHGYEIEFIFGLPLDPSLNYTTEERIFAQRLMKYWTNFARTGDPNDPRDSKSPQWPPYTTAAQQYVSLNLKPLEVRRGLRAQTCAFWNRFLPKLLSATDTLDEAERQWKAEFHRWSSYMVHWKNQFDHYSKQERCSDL
Experimental: as §1, §2
Employing Ellman et al., methodology, AChE levels were quantified in tissue homogenate supernatant (THS) to evaluate cholinergic abnormalities.

malondialdehyde (MDA) = test: Lipid peroxidation (LPO) assay, MDA in brain homogenate; type: in vivo; settings: brain THS of mice, scopolamine 1.5 mg/kg i.p.; donepezil and compounds 2 mg/kg p.o.; mean ± SD
Experimental: as §1, §2
The amount of malondialdehyde (MDA), a marker of lipid peroxidation (LPO), was measured using a method described by Wills[10]. Tris–HCl buffer and THS were mixed and incubated at 37 °C for 2 h with 10% trichloroacetic acid. After incubation, the mixture was centrifuged again (at 1000 rpm for 10 min). […] After cooling, 1.0 mL of double-distilled water was added, and the absorbance was measured at 532 nm.

Substance | GSH assay, μmol of GSH/mg Protein [1] | escape latency versus scopolamine-treated mice (in words) [2] | Escape latency, 2nd Day [2] [s] | Escape latency, 3rd Day [2] [s] | Escape latency, 4th Day [2] [s] | Escape latency, 5th Day [2] [s] | Catalase assay, Catalase activity (Catalase) [min⁻¹] | SOD assay, SOD units/mg protein [3] [SOD units/mg protein] | Nitrite assay, nitrite conc. (nitrite) [μM/mg protein] | μM of AChE/min/mg protein [4] | LPO assay, MDA levels (malondialdehyde (MDA)) | improvement of cognitive defects (in words) [2] | Escape latency, 1st Day [2] [s]
N-(1-(1-(3,4-dimethoxybenzyl)-2-oxopyrrolidin-3-yl)piperidin-4-yl)-4-fluorobenzenesulfonamide [Compound 8] | 0.11 ± 0.001 μmol of GSH/mg Protein | significantly reduced escape latency | 43 ± 2.68 | 22.66 ± 1.79 | 14.16 ± 2.56 | 5.66 ± 1.97 | 5.23 ± 0.02 | 4.07 ± 0.03 | 11.92 ± 0.05 | 0.01 ± 0.01 μM of AChE/min/mg protein | 9.71 ± 0.03 nM/mg of tissue | – | –
2-(1-benzylpiperidin-4-yl)-6,7-dimethoxy-4-(4-methoxyphenyl)quinoline [Compound 18] | 0.11 ± 0.001 μmol of GSH/mg Protein | significantly reduced escape latency | 44.83 ± 3.125 | 24.66 ± 1.24 | 13.83 ± 2.63 | 3.33 ± 1.37 | 5.53 ± 0.01 | 4.08 ± 0.02 | 10.51 ± 0.03 | 0.01 ± 0.01 μM of AChE/min/mg protein | 8.52 ± 0.02 nM/mg of tissue | most potent | –
2-((1-benzylpiperidin-4-yl)methyl)-4-chloro-6,7-dimethoxyquinoline [Compound 16] | 0.11 ± 0.002 μmol of GSH/mg Protein | significantly reduced escape latency | 30.8 ± 0.75 | 21 ± 0.81 | 16 ± 1.54 | 5.33 ± 1.24 | 4.66 ± 0.04 | 3.07 ± 0.02 | 11.74 ± 0.03 | 0.01 ± 0.01 μM of AChE/min/mg protein | 8.52 ± 0.05 nM/mg of tissue | – | 76 ± 3.3
6-chloro-N-(1-(1-(3,4-dimethoxybenzyl)-2-oxopyrrolidin-3-yl)piperidin-4-yl)pyridine-3-sulfonamide [Compound 9] | 0.11 ± 0.002 μmol of GSH/mg Protein | significantly reduced escape latency | 40.83 ± 0.98 | 23.5 ± 2.92 | 15.83 ± 3.37 | 2.66 ± 0.68 | 6.23 ± 0.02 | 4.09 ± 0.02 | 10.42 ± 0.04 | 0.01 ± 0.01 μM of AChE/min/mg protein | 8.48 ± 0.02 nM/mg of tissue | most potent | 80.5 ± 0.84
N-(1-(1-(3,4-dimethoxybenzyl)-2-oxopyrrolidin-3-yl)piperidin-4-yl)-2,4-difluorobenzenesulfonamide [Compound 10] | 0.10 ± 0.005 μmol of GSH/mg Protein | significantly reduced escape latency | 36 ± 1.09 | 25.33 ± 1.79 | 17 ± 1.67 | 3.66 ± 1.88 | 4.3 ± 0.01 | 3.07 ± 0.04 | 12.82 ± 0.04 | 0.01 ± 0.01 μM of AChE/min/mg protein | 8.52 ± 0.05 nM/mg of tissue | – | 80.33 ± 1.09
